26 compounds from patent publication US20120004244A1, “Bis Aromatic Compounds for Use as LTC4 Synthase Inhibitors” (BIOLIPOX AB, priority 2009, published 2012) can be followed below.

One assay has as its target T1, Recombinant human LTC4 synthase (Homo sapiens, UniProt Q16873).
T1 construct: made in house; host or cells: Pichia pastoris ('Piccia pastoralis' [sic])
T1 sequence (Q16873 1-150): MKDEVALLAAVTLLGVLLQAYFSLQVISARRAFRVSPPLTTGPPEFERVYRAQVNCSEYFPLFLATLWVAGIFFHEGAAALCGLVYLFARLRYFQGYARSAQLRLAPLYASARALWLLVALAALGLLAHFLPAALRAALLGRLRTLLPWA
Briefly: LTC4 synthase in vitro assay (LTA4 to LTC4, HTRF detection).
Settings: not given
It counts as biochemical. Here is the method:
In the assay, LTC4 synthase catalyses the reaction where the substrate LTA4 is converted to LTC4. Recombinant human LTC4 synthase is expressed in Piccia pastoralis and the purified enzyme is dissolved in 25 mM tris-buffer pH 7.8 supplemented with 0.1 mM glutathione (GSH) and stored at −80° C. The assay is performed in phosphate buffered saline (PBS) pH 7.4 and 5 mM GSH in 384-well plates.
The following is added chronologically to each well:
1.48 μL LTC4 synthase in PBS with 5 mM GSH. The total protein concentration in this solution is 0.5 μg/mL. 2. 1 μL inhibitor in DMSO (final concentration 10 μM). 3. Incubation of the plate at room temperature for 10 min. 4. 1 μL LTA4 (final concentration 2.5 μM). 5. Incubation of the plate at room temperature for 5 min. 6. 10 μL of the incubation mixture is analysed using homogenous time resolved fluorescent (HTRF) detection.
For orientation: TR-FRET usually uses a lanthanide donor and a delayed reading to cut background.
The term IC50 denotes the concentration needed to halve the response being measured. `COc1ccc(C(=O)Nc2ccc(C(=O)c3ccc(N(C)c4ccc(Cl)cc4)cn3)cc2C(=O)O)cc1` [3:4, 5-{5-[(4-Chlorophenyl)(methyl)amino]picolinoyl}-2-(4-methoxybenzamido)-benzoic acid]: the half-maximal inhibitory concentration (IC50) stood at 23 nM.
Same read-out and setting: with `CN(c1ccc(Cl)cc1)c1ccc(C(=O)c2ccc(C(=O)C(C)(C)C)c(C(=O)O)c2)nc1` [5:13, 5-{5-[(4-Chlorophenyl)(methyl)amino]picolinoyl}-2-(2,2-dimethylpropionyl)-benzoic acid] the figure was 491 nM.
Take `CN(c1ccc(Cl)cc1)c1ccc(C(=O)c2ccc(NC(=O)c3ccc(S(C)(=O)=O)cc3)c(C(=O)O)c2)nc1` [3:14, 5-{5-[(4-Chlorophenyl)(methyl)amino]picolinoyl}-2-(4-methylsulfonyl-benzamido)benzoic acid]: the IC50 worked out at 67 nM.
As for `CN(c1ccc(Cl)cc1)c1ccc(C(=O)c2ccc(NC3CCOCC3)c(C(=O)O)c2)nc1` [2:16, 5-{5-[(4-Chlorophenyl)(methyl)amino]picolinoyl}-2-(4-tetrahydropyranylamino)benzoic acid], the IC50 was found to be 333 nM.
Same read-out and setting: the figure for `CN(c1ccc(C(F)(F)F)cc1)c1ccc(C(=O)c2ccc(C(=O)c3ccccc3)c(C(=O)O)c2)nc1` [5:2, 2-Benzoyl-5-{5-[(methyl)(4-trifluoromethylphenyl)amino]picolinoyl}benzoic acid] is 78 nM.
Consider `O=C(c1ccc(Oc2ccccc2O)c(C(=O)O)c1)c1ccc(N(CC2CC2)c2ccc(Cl)cc2)cn1` [1:28, 5-{5-[(4-Chlorophenyl)(cyclopropylmethyl)amino]picolinoyl}-2-(2-hydroxyphenoxy)benzoic acid], for which the IC50 came out at 44 nM.
Regarding `CN(c1ccc(Cl)cc1)c1ccc(C(=O)c2ccc(-n3ccnc3-c3ccccc3)c(C(=O)O)c2)nc1` [19:2, 5-{5-[(4-Chlorophenyl)(methyl)amino]picolinoyl}-2-(2-phenylimidazol-1-yl)benzoic acid], the IC50 came out at 486 nM.
On the same count and under the same terms, with `CN(c1ccc(Cl)cc1)c1ccc(C(=O)c2ccc(-c3ccc(Cl)cc3Cl)c(C(=O)O)c2)nc1` [21:2, 2′,4′-Dichloro-4-{5-[(4-chlorophenyl)(methyl)amino]picolinoyl}biphenyl-2-carboxylic acid] the figure was 261 nM.
`CN(c1ccc(Cl)cc1)c1ccc(C(=O)c2ccc(C(=O)c3cccs3)c(C(=O)O)c2)nc1` [5:20, 5-{5-[(4-Chlorophenyl)(methyl)amino]picolinoyl}-2-(2-thienylcarbonyl)benzoic acid]: the IC50 turned out to be 104 nM.
With `CN(c1ccc(Cl)cc1)c1ccc(C(=O)c2ccc(Oc3ccc(F)c(F)c3)c(C(=O)O)c2)cn1` [6:2], the IC50 stood at 630 nM.
Consider `O=C(c1ccc(Oc2ccccc2F)c(C(=O)O)c1)c1ccc(N(CC2CC2)c2ccc(Cl)cc2F)cn1` [1:34, 5-{5-[(4-Chloro-2-fluorophenyl)(cyclopropylmethyl)amino]picolinoyl}-2-(2-fluorophenoxy)benzoic acid], for which the concentration for half-maximal inhibition (IC50) amounted to 195 nM.
The same measure, in the same setting: with `O=C(c1ccc(Oc2ccccc2)c(C(=O)O)c1)c1ccc(N(CC2CCCC2)c2ccc(Cl)cc2)cn1` [1:6, 5-{5-[(4-Chlorophenyl)(cyclopentylmethyl)amino]picolinoyl}-2-phenoxybenzoic acid] the figure was 61 nM; with `CN(c1ccc(Cl)cc1)c1ccc(C(=O)c2ccc(NC(=O)c3ccccc3)c(C(=O)O)c2)nc1` [3:3, 2-Benzamido-5-{5-[(4-chlorophenyl)(methyl)amino]picolinoyl}benzoic acid], 34 nM.
Same read-out and setting: the figure for `CN(c1ccc(Cl)cc1)c1ccc(C(=O)c2cc(C(=O)O)c(Oc3ccccc3)cn2)cc1` [8:2] is 302 nM; for `CN(c1ccc(Cl)cc1)c1ccc(C(=O)c2ccc(-n3nncc3-c3ccccc3)c(C(=O)O)c2)nc1` [17:1, 5-{5-[(4-Chlorophenyl)(methyl)amino]picolinoyl}-2-(5-phenyl-1,2,3-triazol-1-yl)-benzoic acid] it is 116 nM; for `COc1ccc(C(=O)Nc2ccc(C(=O)c3ccc(N(CC4CC4)c4ccc(Cl)cc4)cn3)cc2C(=O)O)cc1` [3:7, 5-{5-[(4-Chlorophenyl)(cyclopropylmethyl)amino]picolinoyl}-2-(4-methoxy-benzamido)benzoic acid] it is 31 nM.
On the same count and under the same terms, the figure for `CN(c1ccc(Cl)cc1)c1ccc(C(=O)c2ccc(NCc3ccc4c(c3)OCO4)c(C(=O)O)c2)nc1` [2:12, 5-{5-[(4-Chlorophenyl)(methyl)amino]picolinoyl}-2-(3,4-methylenedioxybenzylamino)benzoic acid] is 66 nM; for `COc1ccc(C(=O)Nc2ccc(C(=O)c3ccc(N(C)c4ccc(Cl)cc4)cn3)cc2C(=O)O)c(Cl)c1OC` [3:36, 2-(2-Chloro-3,4-dimethoxybenzamido)-5-{5-[(4-chlorophenyl)(methyl)amino]-picolinoyl}benzoic acid] it is 39 nM; for `COc1ccccc1C(=O)Nc1ccc(C(=O)c2ccc(N(C)c3ccc(Cl)cc3)cn2)cc1C(=O)O` [3:5, 5-{5-[(4-Chlorophenyl)(methyl)amino]picolinoyl}-2-(2-methoxybenzamido)-benzoic acid] it is 32 nM.
On to `COc1c(F)c(F)cc(C(=O)Nc2ccc(C(=O)c3ccc(N(C)c4ccc(Cl)cc4)cn3)cc2C(=O)O)c1F` [3:31, 5-{5-[(4-Chlorophenyl)(methyl)amino]picolinoyl}-2-(2,4,5-trifluoro-3-methoxy-benzamido)benzoic acid], for which the IC50 was determined as 61 nM.
Regarding `O=C(c1ccc(Oc2ccccc2)c(C(=O)O)c1)c1ccc(-c2cccc(C(F)(F)F)c2)cn1` [7:3, 2-Phenoxy-5-[5-(3-trifluoromethylphenyl)picolinoyl]benzoic acid], the IC50 was determined as 700 nM.
As for `O=C(c1ccc(Oc2ccc3c(c2)OCO3)c(C(=O)O)c1)c1ccc(N(CC2CC2)c2ccc(Cl)cc2)cn1` [1:31, 5-{5-[(4-Chlorophenyl)(cyclopropylmethyl)amino]picolinoyl}-2-(3,4-methylenedioxyphenoxy)benzoic acid], the 50% inhibitory concentration (IC50) stood at 142 nM.
Same read-out and setting: with `O=C(c1ccc(Oc2ccccc2F)c(C(=O)O)c1)c1ccc(N(CC2CC2)c2ccc(Cl)cc2)cn1` [1:38, 5-{5-[(4-Chlorophenyl)(cyclopropylmethyl)amino]picolinoyl}-2-(2-fluorophenoxy)benzoic acid] the figure was 79 nM; with `CCOc1ccc(C(=O)c2ccc(C(=O)c3ccc(N(C)c4ccc(Cl)cc4)cn3)cc2C(=O)O)cc1OCC` [5:14, 5-{5-[(4-Chlorophenyl)(methyl)amino]picolinoyl}-2-(3,4-diethoxybenzoyl)-benzoic acid], 77 nM.
For the compound `COc1ccc(C(=O)c2ccc(C(=O)c3ccc(N(CC(F)(F)F)c4ccc(Cl)cc4F)cn3)cc2C(=O)O)cc1` [5:6, 5-{5-[(4-Chloro-2-fluorophenyl)(2,2,2-trifluoroethyl)amino]picolinoyl}-2-(4-methoxybenzoyl)benzoic acid], the IC50 was 401 nM.
Still for that read-out and setting: the figure for `CN(c1ccc(Cl)cc1)c1ccc(C(=O)c2ccc(-c3ccccc3OC(F)(F)F)c(C(=O)O)c2)nc1` [21:6, 4-{5-[(4-chlorophenyl)(methyl)amino]picolinoyl}-2′-trifluoromethoxy-biphenyl-2-carboxylic acid] is 217 nM.

The same assay, now with this note: 5 min; total concentration of title compound in the assay 10 μM.
A word on the inhibition: it is the share of the control response that was lost under treatment. As to `CN(c1ccc(Cl)cc1)c1ccc(C(=O)c2ccc(Oc3ccc(F)c(F)c3)c(C(=O)O)c2)cn1` [6:2], the inhibition at 10 µM worked out at 96%.
For `O=C(c1ccc(Oc2ccccc2)c(C(=O)O)c1)c1ccc(N(CC2CCCC2)c2ccc(Cl)cc2)cn1` [1:6, 5-{5-[(4-Chlorophenyl)(cyclopentylmethyl)amino]picolinoyl}-2-phenoxybenzoic acid], the inhibition at 10 µM is 100%.
Same read-out and setting: with `CN(c1ccc(Cl)cc1)c1ccc(C(=O)c2cc(C(=O)O)c(Oc3ccccc3)cn2)cc1` [8:2] the figure was 99%; with `CN(c1ccc(Cl)cc1)c1ccc(C(=O)c2ccc(-n3nncc3-c3ccccc3)c(C(=O)O)c2)nc1` [17:1, 5-{5-[(4-Chlorophenyl)(methyl)amino]picolinoyl}-2-(5-phenyl-1,2,3-triazol-1-yl)-benzoic acid], 98%.
